Results from patent publication US8507489B2, “Bicyclic triazoles as protein kinase modulators” (SGX Pharmaceuticals, Inc., priority 2006, dated 2013).

Legend:
GTL16 cells = test: 96-well XTT cell survival assay (GTL16 cells); type: cell-based; details: Homo sapiens, GTL 16, 72 hours
Experimental: GTL16 cells were maintained in DMEM Medium supplemented with 10% fetal bovine serum (FBS) 2 mM L-Glutamine and 100 units penicillin/100 μg streptomycin, at 37° C. in 5% CO2.
Compounds were tested in the following assays in duplicate.
96-well XTT assay (GTL16 cells): One day prior to assay the growth media was aspirated off and assay media was added to cells. On the day of the assay, the cells were grown in assay media containing various concentrations of compounds (duplicates) on a 96-well flat bottom plate for 72 hours at 37° C. in 5% CO2. The starting cell number was 5000 cells per well and volume was 120 μl. At the end of the 72-hour incubation, 40 μl of XTT labeling mixture (50:1 solution of sodium 3′-[1-(phenylaminocarbonyl)-3,4-tetrazolium]-bis (4-methoxy-6-nitro) benzene sulfonic acid hydrate and Electron-coupling reagent: PMS (N-methyl dibenzopyrazine methyl sulfate) were added to each well of the plate. After an additional 5 hours of incubation at 37° C., the absorbance reading at 450 nm with a background correction of 650 nm was measured with a spectrophotometer.

AKT1 (PKB alpha) = AKT1 (PKB alpha) (Homo sapiens, UniProt P31749); test: SelectScreen Kinase Profiling AKT1; type: biochemical
Excerpt: (§1) SelectScreen™ is a trademark screening assay protocol for kinases developed by Invitrogen Corporation, Madison, Wis. Details on assay conditions can be found on the company's website.

ALK = ALK (Homo sapiens, UniProt Q9UM73); test: SelectScreen Kinase Profiling ALK; type: biochemical
Excerpt: as §1

AURKB (Aurora B) = AURKB (Aurora B) (Homo sapiens, UniProt Q96GD4); test: SelectScreen Kinase Profiling AURKB; type: biochemical
Excerpt: as §1

BRAF V599E = BRAF V599E (Homo sapiens, UniProt P15056, V600E); test: SelectScreen Kinase Profiling BRAF V599E; type: biochemical
Excerpt: as §1

CDK1/cyclin B = CDK1/cyclin B (Homo sapiens, UniProt P06493); test: SelectScreen Kinase Profiling CDK1/cyclin B; type: biochemical
Excerpt: as §1

EGFR (ErbB1) = EGFR (ErbB1) (Homo sapiens, UniProt P00533); test: SelectScreen Kinase Profiling EGFR; type: biochemical
Excerpt: as §1

EPHA2 = EPHA2 (Homo sapiens, UniProt P29317); test: SelectScreen Kinase Profiling EPHA2; type: biochemical
Excerpt: as §1

FES (FPS) = FES (FPS) (Homo sapiens, UniProt P07332); test: SelectScreen Kinase Profiling FES; type: biochemical
Excerpt: as §1

FLT3 D835Y = FLT3 D835Y (Homo sapiens, UniProt P36888, D835Y); test: SelectScreen Kinase Profiling FLT3 D835Y; type: biochemical
Excerpt: as §1

GRK4 = GRK4 (Homo sapiens, UniProt P32298); test: SelectScreen Kinase Profiling GRK4; type: biochemical
Excerpt: as §1

IGF1R = IGF1R (Homo sapiens, UniProt P08069); test: SelectScreen Kinase Profiling IGF1R; type: biochemical
Excerpt: as §1

JAK2 JH1 JH2 V617F = molecular target: T1, JAK2 JH1 JH2 V617F (Homo sapiens, UniProt O60674, V617F); test: SelectScreen Kinase Profiling JAK2 JH1 JH2 V617F; type: biochemical
T1 construct: JAK2 JH1 JH2 V617F
Excerpt: as §1

KIT T670I = KIT T670I (Homo sapiens, UniProt P10721, T670I); test: SelectScreen Kinase Profiling KIT T670I; type: biochemical
Excerpt: as §1

MAPK1 (ERK2) = MAPK1 (ERK2) (Homo sapiens, UniProt P28482); test: SelectScreen Kinase Profiling MAPK1; type: biochemical
Excerpt: as §1

MERTK (cMER) = MERTK (cMER) (Homo sapiens, UniProt Q12866); test: SelectScreen Kinase Profiling MERTK; type: biochemical
Excerpt: as §1

NTRK3 (TRKC) = NTRK3 (TRKC) (Homo sapiens, UniProt Q16288); test: SelectScreen Kinase Profiling NTRK3; type: biochemical
Excerpt: as §1

PDK1 = PDK1 (Homo sapiens, UniProt O15530); test: SelectScreen Kinase Profiling PDK1; type: biochemical
Excerpt: as §1

PIM1 = PIM1 (Homo sapiens, UniProt P11309); test: SelectScreen Kinase Profiling PIM1; type: biochemical
Excerpt: as §1

PLK1 = PLK1 (Homo sapiens, UniProt P53350); test: SelectScreen Kinase Profiling PLK1; type: biochemical
Excerpt: as §1

PTK2B (FAK2) = PTK2B (FAK2) (Homo sapiens, UniProt Q14289); test: SelectScreen Kinase Profiling PTK2B; type: biochemical
Excerpt: as §1

RET = RET (Homo sapiens, UniProt P07949); test: SelectScreen Kinase Profiling RET; type: biochemical
Excerpt: as §1

ROS1 = ROS1 (Homo sapiens, UniProt P08922); test: SelectScreen Kinase Profiling ROS1; type: biochemical
Excerpt: as §1

RPS6KB1 (p70S6K) = RPS6KB1 (p70S6K) (Homo sapiens, UniProt P23443); test: SelectScreen Kinase Profiling RPS6KB1; type: biochemical
Excerpt: as §1

TYRO3 (RSE) = TYRO3 (RSE) (Homo sapiens, UniProt Q06418); test: SelectScreen Kinase Profiling TYRO3; type: biochemical
Excerpt: as §1

GTL16 tumors = test: GTL16 tumor xenograft model, tumor growth; type: in vivo; details: last day of treatment, nude mice
Experimental: Female athymic nude mice (nu/nu from Harlan) were 6-8 weeks old with a body weight range of 18-22 g at the beginning of the study. The animals had free access to food and water throughout the study. The mice were housed on irradiated Alpha-Dri® Bed-O-Cobs® Laboratory Animal Bedding in static micro isolator caging on a 12-hour light cycle at 70-74° F. and 40-60% humidity. All procedures involving animals were conducted in compliance with the NIH Guide for the Care and Use of Laboratory Animals and all protocols were approved by an Internal Animal Care and Use Committee (IACUC).
Xenografts were initiated from GTL-16 tumor cells cultured and maintained by an internal Cell Biology Department. Each test mouse received a subcutaneous injection of 4×10^6 cells suspended in 100 μL of serum free RPMI media. Tumors were randomized into treatment groups on Day 5 when the average tumor size reached approximately 150 mm^3. Each dose groups contained n=5 mice. Tumor volume was calculated using the formula:
[formula] where w=width and l=length in mm of the tumor. Tumor weight may be estimated with the assumption that 1 mg is equivalent to 1 mm^3 of tumor volume. Tumor Growth Inhibition (TGI) Analysis
TGI was calculated from the difference between the mean tumor volumes of vehicle-treated and drug-treated mice, expressed as a percentage. % TGI=Mean Tumor Volumecontrol−Mean Tumor Volumedrug-treated×100 […] Tumor Volumecontrol
The MTV is defined as the mean tumor volume (MTV) for the number of animals, n, remaining in the study on that day.

T1 sequence (O60674 532-1132 V617F limits assumed): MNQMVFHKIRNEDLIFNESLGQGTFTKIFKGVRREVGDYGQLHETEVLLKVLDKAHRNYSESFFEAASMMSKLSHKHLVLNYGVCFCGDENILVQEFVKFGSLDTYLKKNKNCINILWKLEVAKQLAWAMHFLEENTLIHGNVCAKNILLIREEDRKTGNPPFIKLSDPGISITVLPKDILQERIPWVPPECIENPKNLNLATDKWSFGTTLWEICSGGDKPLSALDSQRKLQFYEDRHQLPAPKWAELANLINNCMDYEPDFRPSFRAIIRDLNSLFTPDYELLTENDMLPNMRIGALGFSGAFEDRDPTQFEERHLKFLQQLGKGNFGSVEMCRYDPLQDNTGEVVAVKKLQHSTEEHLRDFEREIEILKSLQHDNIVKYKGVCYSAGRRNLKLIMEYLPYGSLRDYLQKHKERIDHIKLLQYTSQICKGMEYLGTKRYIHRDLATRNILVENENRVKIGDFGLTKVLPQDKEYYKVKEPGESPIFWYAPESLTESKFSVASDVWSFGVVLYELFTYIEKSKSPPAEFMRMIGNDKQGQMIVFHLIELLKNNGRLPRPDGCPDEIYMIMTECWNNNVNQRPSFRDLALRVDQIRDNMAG
Sequence of MERTK (cMER) (Q12866 21-999): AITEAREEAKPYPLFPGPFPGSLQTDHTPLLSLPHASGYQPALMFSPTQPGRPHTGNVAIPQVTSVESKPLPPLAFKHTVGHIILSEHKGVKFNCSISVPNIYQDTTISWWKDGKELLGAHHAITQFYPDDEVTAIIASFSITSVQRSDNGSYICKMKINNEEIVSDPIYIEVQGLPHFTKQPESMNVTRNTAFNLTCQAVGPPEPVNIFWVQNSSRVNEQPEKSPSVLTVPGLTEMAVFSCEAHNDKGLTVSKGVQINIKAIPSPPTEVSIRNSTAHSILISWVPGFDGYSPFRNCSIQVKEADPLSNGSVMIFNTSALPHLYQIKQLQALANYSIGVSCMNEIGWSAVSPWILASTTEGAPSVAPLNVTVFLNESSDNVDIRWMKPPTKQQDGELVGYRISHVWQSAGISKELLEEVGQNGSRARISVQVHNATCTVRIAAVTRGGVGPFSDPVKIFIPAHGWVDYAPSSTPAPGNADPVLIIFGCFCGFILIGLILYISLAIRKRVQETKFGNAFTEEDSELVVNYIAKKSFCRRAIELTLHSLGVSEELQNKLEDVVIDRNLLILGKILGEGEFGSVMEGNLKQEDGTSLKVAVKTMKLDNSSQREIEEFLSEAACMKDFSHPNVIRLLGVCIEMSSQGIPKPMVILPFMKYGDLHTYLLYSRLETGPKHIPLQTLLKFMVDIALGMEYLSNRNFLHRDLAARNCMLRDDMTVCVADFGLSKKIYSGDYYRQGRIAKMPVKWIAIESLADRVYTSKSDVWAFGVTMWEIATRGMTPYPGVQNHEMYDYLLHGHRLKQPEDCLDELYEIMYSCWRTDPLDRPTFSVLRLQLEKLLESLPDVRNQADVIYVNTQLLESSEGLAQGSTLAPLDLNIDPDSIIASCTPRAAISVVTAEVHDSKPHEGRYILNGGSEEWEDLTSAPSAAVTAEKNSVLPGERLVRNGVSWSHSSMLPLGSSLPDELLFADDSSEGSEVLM
Sequence of EGFR (ErbB1) (P00533 25-1210): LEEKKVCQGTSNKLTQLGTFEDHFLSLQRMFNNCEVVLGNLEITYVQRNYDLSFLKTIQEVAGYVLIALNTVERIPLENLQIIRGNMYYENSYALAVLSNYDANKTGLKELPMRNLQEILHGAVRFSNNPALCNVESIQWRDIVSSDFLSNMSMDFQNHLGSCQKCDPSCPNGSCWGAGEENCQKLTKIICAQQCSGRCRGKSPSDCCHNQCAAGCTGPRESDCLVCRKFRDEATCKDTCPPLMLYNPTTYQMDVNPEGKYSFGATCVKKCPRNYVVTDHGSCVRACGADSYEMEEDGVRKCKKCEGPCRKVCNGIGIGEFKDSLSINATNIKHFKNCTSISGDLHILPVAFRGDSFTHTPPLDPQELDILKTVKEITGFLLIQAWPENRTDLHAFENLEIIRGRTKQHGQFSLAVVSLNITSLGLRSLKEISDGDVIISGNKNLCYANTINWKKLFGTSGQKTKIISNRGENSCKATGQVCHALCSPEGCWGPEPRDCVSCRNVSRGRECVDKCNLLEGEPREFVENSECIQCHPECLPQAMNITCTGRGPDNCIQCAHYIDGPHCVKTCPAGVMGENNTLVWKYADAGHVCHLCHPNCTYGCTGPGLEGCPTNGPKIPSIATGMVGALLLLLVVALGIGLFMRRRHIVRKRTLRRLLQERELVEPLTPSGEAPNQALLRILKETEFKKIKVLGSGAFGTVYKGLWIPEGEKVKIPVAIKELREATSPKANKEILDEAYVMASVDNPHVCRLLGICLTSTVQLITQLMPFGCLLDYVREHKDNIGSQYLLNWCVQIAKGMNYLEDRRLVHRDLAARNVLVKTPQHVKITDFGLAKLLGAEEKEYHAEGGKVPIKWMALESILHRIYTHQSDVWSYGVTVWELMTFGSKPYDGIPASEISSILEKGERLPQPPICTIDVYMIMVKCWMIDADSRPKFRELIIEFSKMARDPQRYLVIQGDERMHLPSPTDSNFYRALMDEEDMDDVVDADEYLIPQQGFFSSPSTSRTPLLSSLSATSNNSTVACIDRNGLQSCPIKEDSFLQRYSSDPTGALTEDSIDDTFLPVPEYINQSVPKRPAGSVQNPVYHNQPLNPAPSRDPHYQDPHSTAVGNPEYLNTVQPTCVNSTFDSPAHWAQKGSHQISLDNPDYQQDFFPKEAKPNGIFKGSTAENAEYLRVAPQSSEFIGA
Sequence of EPHA2 (P29317 24-976): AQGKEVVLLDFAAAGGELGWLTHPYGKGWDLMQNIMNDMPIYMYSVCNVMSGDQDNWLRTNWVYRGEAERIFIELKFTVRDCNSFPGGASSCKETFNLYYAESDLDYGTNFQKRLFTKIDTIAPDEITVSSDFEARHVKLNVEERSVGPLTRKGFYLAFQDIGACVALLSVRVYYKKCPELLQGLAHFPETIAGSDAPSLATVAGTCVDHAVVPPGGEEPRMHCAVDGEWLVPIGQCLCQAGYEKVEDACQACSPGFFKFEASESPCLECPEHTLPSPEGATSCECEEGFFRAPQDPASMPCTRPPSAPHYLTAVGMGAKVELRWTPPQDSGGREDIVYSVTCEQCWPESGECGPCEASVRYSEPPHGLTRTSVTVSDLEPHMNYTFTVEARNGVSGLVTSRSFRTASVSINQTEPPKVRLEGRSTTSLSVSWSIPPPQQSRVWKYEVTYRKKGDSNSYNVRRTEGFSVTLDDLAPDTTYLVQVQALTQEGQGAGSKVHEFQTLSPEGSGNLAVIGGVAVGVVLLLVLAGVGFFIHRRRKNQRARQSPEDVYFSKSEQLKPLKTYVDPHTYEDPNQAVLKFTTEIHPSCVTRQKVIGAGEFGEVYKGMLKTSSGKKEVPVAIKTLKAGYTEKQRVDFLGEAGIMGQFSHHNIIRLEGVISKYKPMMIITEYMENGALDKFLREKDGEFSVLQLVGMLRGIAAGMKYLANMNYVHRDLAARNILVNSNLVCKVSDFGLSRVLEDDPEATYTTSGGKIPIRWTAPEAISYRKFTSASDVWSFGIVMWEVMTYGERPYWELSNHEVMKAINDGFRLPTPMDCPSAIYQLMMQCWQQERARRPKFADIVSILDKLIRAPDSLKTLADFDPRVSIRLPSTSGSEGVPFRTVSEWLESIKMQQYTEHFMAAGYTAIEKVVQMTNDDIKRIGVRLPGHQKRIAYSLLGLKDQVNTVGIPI
Sequence of RPS6KB1 (p70S6K) (P23443 whole entry): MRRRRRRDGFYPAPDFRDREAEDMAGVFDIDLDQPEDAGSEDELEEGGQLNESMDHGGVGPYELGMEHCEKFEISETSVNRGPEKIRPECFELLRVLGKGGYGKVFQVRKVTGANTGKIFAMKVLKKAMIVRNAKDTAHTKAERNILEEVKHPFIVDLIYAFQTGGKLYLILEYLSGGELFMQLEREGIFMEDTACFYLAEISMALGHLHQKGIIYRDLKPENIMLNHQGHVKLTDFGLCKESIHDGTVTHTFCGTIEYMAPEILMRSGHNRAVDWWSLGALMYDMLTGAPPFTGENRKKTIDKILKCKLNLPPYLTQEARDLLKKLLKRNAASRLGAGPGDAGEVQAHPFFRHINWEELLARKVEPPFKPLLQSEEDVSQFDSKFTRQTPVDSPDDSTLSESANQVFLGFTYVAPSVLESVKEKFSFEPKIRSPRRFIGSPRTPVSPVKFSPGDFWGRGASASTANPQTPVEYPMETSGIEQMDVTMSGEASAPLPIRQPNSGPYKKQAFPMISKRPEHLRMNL
Sequence of PLK1 (P53350 whole entry): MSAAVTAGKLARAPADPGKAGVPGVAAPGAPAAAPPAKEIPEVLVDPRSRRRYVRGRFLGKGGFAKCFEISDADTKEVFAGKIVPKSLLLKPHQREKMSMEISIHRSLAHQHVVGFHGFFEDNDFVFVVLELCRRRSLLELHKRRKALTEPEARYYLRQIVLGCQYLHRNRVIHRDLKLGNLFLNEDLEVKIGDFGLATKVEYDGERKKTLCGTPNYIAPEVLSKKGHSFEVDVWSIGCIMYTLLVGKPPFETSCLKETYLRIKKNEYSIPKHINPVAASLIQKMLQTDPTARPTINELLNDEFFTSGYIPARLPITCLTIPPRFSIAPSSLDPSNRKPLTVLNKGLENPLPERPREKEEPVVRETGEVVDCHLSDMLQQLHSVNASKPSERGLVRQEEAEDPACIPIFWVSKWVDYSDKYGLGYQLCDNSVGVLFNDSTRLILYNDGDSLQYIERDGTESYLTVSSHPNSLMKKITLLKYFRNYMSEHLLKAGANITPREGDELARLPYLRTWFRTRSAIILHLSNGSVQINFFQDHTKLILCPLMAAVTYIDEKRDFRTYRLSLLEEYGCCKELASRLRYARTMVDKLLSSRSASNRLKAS

Structure (SMILES) | IC50 (GTL16 cells) [nM] | inhibition at 1 µM (AKT1 (PKB alpha)) [%] | inhibition at 1 µM (ALK) [%] | inhibition at 1 µM (AURKB (Aurora B)) [%] | inhibition at 1 µM (BRAF V599E) [%] | inhibition at 1 µM (CDK1/cyclin B) [%] | inhibition at 1 µM (EGFR (ErbB1)) [%] | inhibition at 1 µM (EPHA2) [%] | inhibition at 1 µM (FES (FPS)) [%] | inhibition at 1 µM (FLT3 D835Y) [%] | inhibition at 1 µM (GRK4) [%] | inhibition at 1 µM (IGF1R) [%] | inhibition at 1 µM (JAK2 JH1 JH2 V617F) [%] | inhibition at 1 µM (KIT T670I) [%] | inhibition at 1 µM (MAPK1 (ERK2)) [%] | inhibition at 1 µM (MERTK (cMER)) [%] | inhibition at 1 µM (NTRK3 (TRKC)) [%] | inhibition at 1 µM (PDK1) [%] | inhibition at 1 µM (PIM1) [%] | inhibition at 1 µM (PLK1) [%] | other results
Cn1cc(-c2ccc3nnc(Sc4ccc5ncccc5c4)n3n2)cn1 [Compound 4, 6-[6-(1-Methyl-1H-pyrazol-4-yl)-[1,2,4]triazolo[4,3-b]pyridazin-3-ylsulfanyl]-quinoline] | ≤ 100 | 5 | -10 | 7 | 36 | 5 | -2 | -23 | 5 | 8 | 2 | -3 | -11 | -12 | 9 | 7 | 7 | 7 | 4 | 0 | inhibition at 1 µM (PTK2B (FAK2)): 6%; inhibition at 1 µM (RET): 5%; inhibition at 1 µM (ROS1): 7%; inhibition at 1 µM (RPS6KB1 (p70S6K)): 3%; inhibition at 1 µM (TYRO3 (RSE)): 19%; decrease of mean tumor volume compared to vehicle-treated group (GTL16 tumors; 10 mg/kg PO Q12H, 14 consecutive days): 65%; decrease of mean tumor volume compared to vehicle-treated group (GTL16 tumors; 20 mg/kg PO Q12H, 14 consecutive days): 75%; decrease of mean tumor volume compared to vehicle-treated group (GTL16 tumors; 30 mg/kg PO Q12H, 14 consecutive days): 81%; decrease of mean tumor volume compared to vehicle-treated group (GTL16 tumors; 60 mg/kg PO Q24H, 14 consecutive days): 75%; decrease of mean tumor volume compared to vehicle-treated group (GTL16 tumors; 100 mg/kg PO Q12H, 14 consecutive days): 87%
Cc1ccc2nnc(Sc3ccc4ncc(-c5cnn(C)c5)cc4c3)n2n1 [Compound 41, 3-(1-Methyl-1H-pyrazol-4-yl)-6-(6-methyl-[1,2,4]triazolo[4,3-b]pyridazin-3-ylsulfanyl)-quinoline] | ≤ 100 | -1 | 23 | 61 | 7 | 17 | 0 | 2 | 1 | 35 | -4 | 6 | 9 | 4 | 0 | 10 | 85 | 6 | 0 | 0 | inhibition at 1 µM (PTK2B (FAK2)): 12%; inhibition at 1 µM (RET): 21%; inhibition at 1 µM (ROS1): 41%; inhibition at 1 µM (RPS6KB1 (p70S6K)): 5%; inhibition at 1 µM (TYRO3 (RSE)): 22%; decrease of mean tumor volume compared to vehicle-treated group (GTL16 tumors; 1 mg/kg PO Q12H, 13 consecutive days): 42%; decrease of mean tumor volume compared to vehicle-treated group (GTL16 tumors; 3 mg/kg PO Q12H, 13 consecutive days): 67%; decrease of mean tumor volume compared to vehicle-treated group (GTL16 tumors; 10 mg/kg PO Q12H, 13 consecutive days): 80%; decrease of mean tumor volume compared to vehicle-treated group (GTL16 tumors; 30 mg/kg PO Q12H, 13 consecutive days): 87%
